Read-outs that look alike come from different tables or passages of the source.
Tests used:
SARS-CoV-2 3CLpro [1] = molecular target: T1, SARS-CoV-2 3CLpro (Severe acute respiratory syndrome coronavirus 2, UniProt P0DTD1); assay: biochemical; conditions: for inhibition at 100 µM: compound concentration 100 μM; for inhibition at 100 µM / inhibition at 10 µM: read-out: Inhibition rate (%) against 3CLpro; for IC50: FRET assay, serial dilution, read-out: IC50 against SARS-CoV-2 3CLpro; for inhibition at 10 µM: compound concentration 10 μM
T1 construct: The kit contains assay buffer (125 mL, blank control), 2019-nCoV-2 3CLpro (500 μL), substrate (1 mL); purchased Beyotime Biotechnology (Shanghai, China) P0312M

SARS-CoV-2 3CLpro [2] = molecular target: T1, SARS-CoV-2 3CLpro; set-up: method as in PMID 32963564; conditions: in vitro; read-out: IC50 on SARS-CoV-2 3CLpro protein activity; cited from earlier work

Row | SMILES | inhibition at 100 µM (SARS-CoV-2 3CLpro [1]) [%] | IC50 (SARS-CoV-2 3CLpro [1]) [µM] | inhibition at 10 µM (SARS-CoV-2 3CLpro [1]) [%] | IC50 (SARS-CoV-2 3CLpro [2]) [µM]
1 | Oc1cc(O)c2c(c1)O[C@H](c1ccc(O)c(O)c1)[C@H](O)C2 [Compound 1, (−)-epicatechin] | > 50 | – | – | –
2 | Oc1cc(O)c2c(c1)O[C@H](c1cc(O)c(O)c(O)c1)[C@H](O)C2 [Compound 4, (−)-epigallocatechin] | – | 12 ± 1.9 | > 50 | –
3 | O=C(O[C@@H]1Cc2c(O)cc(O)cc2O[C@@H]1c1cc(O)c(O)c(O)c1)c1cc(O)c(O)c(O)c1 [Compound 5, (−)-epigallocatechin-3-O-gallate] | – | – | > 50 | –
4 | COc1cc(C(=O)O[C@@H]2Cc3c(O)cc(O)cc3O[C@@H]2c2cc(O)c(O)c(O)c2)cc(O)c1O [Compound 6, (−)-epigallocatechin-3-(3′-O-methyl)-gallate] | – | 9.8 ± 0.4 | > 50 | –
5 | O=C(O[C@@H]1Cc2c(O)cc(O)cc2O[C@@H]1c1ccc(O)cc1)c1cc(O)c(O)c(O)c1 [Compound 7, (−)-epiafzelechin-3-O-gallate] | > 50 | – | – | –
6 | O=C(O[C@H]1Cc2c(O)cc(O)cc2O[C@@H]1c1cc(O)c(O)c(O)c1)c1cc(O)c(O)c(O)c1 [Compound 9, (−)-gallocatechin-3-O-gallate] | – | – | > 50 | –
7 | CCN1C(=O)CC[C@@H]1c1c(O)cc2c(c1O)C[C@@H](O)[C@@H](c1cc(O)c(O)c(O)c1)O2 [Compound 11, 6-(5″R)-N-ethyl-2-pyrrolidinone-epigallocatechin] | > 50 | 22.4 ± 5.8 | – | –
8 | CCN1C(=O)CC[C@H]1c1c(O)cc2c(c1O)C[C@@H](O)[C@@H](c1cc(O)c(O)c(O)c1)O2 [Compound 12, 6-(5″S)-N-ethyl-2-pyrrolidinone-epigallocatechin] | > 50 | 26.8 ± 0.9 | – | –
9 | CCN1C(=O)CC[C@H]1c1c(O)cc(O)c2c1O[C@H](c1cc(O)c(O)c(O)c1)[C@H](O)C2 [Compound 14, puerin V] | > 50 | 14.9 ± 1.4 | – | –
10 | CCN1C(=O)CC[C@@H]1c1c(O)cc(O)c2c1O[C@H](c1cc(O)c(O)c(O)c1)[C@H](O)C2 [Compound 15, puerin VI] | > 50 | 14.5 ± 1.1 | – | –
11 | COc1cc(C(=O)O[C@@H]2Cc3c(O)cc(O)cc3O[C@@H]2c2cc(O)c(O)c(O)c2-c2c([C@H]3Oc4cc(O)cc(O)c4C[C@H]3O)cc(O)c(O)c2O)cc(O)c1O [Compound 20, Epigallocatechin-(2′→2′)-epigallocatechin-3-(3″-O-methyl)-gallate] | > 50 | 42.1 | – | –
12 | O=C(O[C@@H]1Cc2c(O)cc(O)cc2O[C@@H]1c1cc(O)c(O)c(O)c1-c1c([C@H]2Oc3cc(O)cc(O)c3C[C@H]2OC(=O)c2cc(O)c(O)c(O)c2)cc(O)c(O)c1O)c1cc(O)c(O)c(O)c1 [Compound 21, theasinensin A] | > 50 | – | – | –
13 | C[C@@H]1O[C@@H](OC[C@H]2O[C@@H](Oc3c(-c4ccc(O)cc4)oc4cc(O)cc(O)c4c3=O)[C@H](OC(=O)/C=C\c3ccc(O)cc3)[C@@H](O)[C@H]2O)[C@H](O)[C@H](O[C@@H]2O[C@H](CO)[C@@H](O)[C@H](O)[C@H]2O)[C@H]1O [Compound 32, Kaempferol-3-O-[2″-O-(Z)-p-coumaroyl] [β-D-glucopyranosyl-(1→3)-O-α-L-rhamnopyranosyl-(1→6)]-β-D-galactopyranoside] | > 50 | 61.1 | – | –
14 | O=c1c(O)cc([C@H]2Oc3cc(O)cc(O)c3C[C@H]2O)cc2c([C@H]3Oc4cc(O)cc(O)c4C[C@H]3O)cc(O)c(O)c12 [theaflavin] | – | – | – | 15

From publication PMC11901911, “Diverse Structures of Tea Polyphenols from Rougui Wuyi Rock Tea and Their Potential as Inhibitor of 3C-like Protease” (Molecules, 2025)
